Laboratory results: patent US20080318943A1, “Compounds and Uses Thereof - 848” (ASTRAZENECA AB, priority 2007, published 2008)

What was measured:
GABAA receptor α1β2γ2 = target: T1, GABAA receptor α1β2γ2 (Homo sapiens, UniProt P14867+P18507); assay: Two-electrode voltage-clamp potentiation of GABA EC10 current in Xenopus oocytes, GABAA1; assay type: cell-based; conditions: percentage potentiation of GABA EC10 current divided by that of diazepam
T1 construct: expressed in transfected cells; host or cells: Xenopus laevis oocytes injected with cRNA
T1 sequence (P14867 28-456): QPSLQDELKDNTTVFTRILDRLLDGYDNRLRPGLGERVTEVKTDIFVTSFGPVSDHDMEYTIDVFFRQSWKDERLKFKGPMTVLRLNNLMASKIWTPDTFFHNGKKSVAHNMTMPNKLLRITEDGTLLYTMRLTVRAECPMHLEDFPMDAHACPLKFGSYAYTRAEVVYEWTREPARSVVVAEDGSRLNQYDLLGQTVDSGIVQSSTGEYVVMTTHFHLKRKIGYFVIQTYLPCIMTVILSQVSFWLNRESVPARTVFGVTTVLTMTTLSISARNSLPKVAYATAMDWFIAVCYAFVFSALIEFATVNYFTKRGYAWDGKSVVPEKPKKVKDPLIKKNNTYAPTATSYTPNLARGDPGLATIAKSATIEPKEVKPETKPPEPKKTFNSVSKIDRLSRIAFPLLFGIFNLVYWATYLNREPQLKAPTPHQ
T1 sequence (P47870 25-512 partner limits assumed): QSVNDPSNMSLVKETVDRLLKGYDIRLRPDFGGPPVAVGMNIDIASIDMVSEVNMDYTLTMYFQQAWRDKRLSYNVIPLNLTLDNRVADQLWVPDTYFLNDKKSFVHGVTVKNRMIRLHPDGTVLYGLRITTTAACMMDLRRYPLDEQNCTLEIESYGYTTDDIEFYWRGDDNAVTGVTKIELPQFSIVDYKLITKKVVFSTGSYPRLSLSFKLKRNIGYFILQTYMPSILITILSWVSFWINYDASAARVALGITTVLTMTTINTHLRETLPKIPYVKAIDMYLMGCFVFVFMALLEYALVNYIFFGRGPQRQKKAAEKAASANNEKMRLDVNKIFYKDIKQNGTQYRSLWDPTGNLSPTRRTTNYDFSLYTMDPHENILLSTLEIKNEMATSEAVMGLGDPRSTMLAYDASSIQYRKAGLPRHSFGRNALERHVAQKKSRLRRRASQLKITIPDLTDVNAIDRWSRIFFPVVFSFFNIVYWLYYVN
T1 sequence (P18507 40-475): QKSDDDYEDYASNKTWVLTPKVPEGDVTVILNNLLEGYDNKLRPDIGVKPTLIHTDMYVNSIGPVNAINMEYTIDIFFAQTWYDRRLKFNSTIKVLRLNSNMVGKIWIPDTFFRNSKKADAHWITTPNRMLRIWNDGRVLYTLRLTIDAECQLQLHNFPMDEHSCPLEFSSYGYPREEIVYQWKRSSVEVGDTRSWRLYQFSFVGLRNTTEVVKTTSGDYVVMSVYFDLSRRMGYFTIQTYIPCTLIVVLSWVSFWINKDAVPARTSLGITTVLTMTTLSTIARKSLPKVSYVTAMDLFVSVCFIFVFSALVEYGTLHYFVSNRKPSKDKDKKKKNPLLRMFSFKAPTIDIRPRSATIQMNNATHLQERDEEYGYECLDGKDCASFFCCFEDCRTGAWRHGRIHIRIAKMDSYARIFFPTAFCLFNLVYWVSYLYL
Summary of the method: (§1)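 Human GABAA receptors expressed in Xenopus oocytes by cRNA injection (α:β:γ molar ratio ~1:1:10 for α1β2γ2, 1:1:1 for α2β3γ2), recorded 2-10 days later by two-electrode voltage clamp at −60 mV in ND-96, pH 7.5. Modulator preapplied 30 s before GABA at per-oocyte EC10. Peak-current percent potentiation over GABA alone, normalised to diazepam.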

GABAA receptor α2β3γ2 = target: T2, GABAA receptor α2β3γ2 (Homo sapiens, UniProt P18507+P47869); assay: Two-electrode voltage-clamp potentiation of GABA EC10 current in Xenopus oocytes, GABAA2; assay type: cell-based; conditions: percentage potentiation of GABA EC10 current divided by that of diazepam
T2 construct: expressed in transfected cells; host or cells: Xenopus laevis oocytes injected with cRNA
T2 sequence (P47869 29-451): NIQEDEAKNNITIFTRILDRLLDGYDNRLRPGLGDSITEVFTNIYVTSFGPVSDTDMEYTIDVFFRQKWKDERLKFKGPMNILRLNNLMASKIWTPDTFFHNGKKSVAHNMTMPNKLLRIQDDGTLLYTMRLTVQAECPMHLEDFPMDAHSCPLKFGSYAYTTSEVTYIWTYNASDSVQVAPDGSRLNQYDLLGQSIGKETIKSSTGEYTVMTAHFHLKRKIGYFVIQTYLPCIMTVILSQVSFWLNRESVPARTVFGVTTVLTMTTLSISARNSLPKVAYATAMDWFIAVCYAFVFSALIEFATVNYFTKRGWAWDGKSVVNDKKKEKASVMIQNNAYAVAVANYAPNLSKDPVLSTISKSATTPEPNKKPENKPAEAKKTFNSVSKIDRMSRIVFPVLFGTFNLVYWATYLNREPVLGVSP
T2 sequence (P28472 26-473 partner): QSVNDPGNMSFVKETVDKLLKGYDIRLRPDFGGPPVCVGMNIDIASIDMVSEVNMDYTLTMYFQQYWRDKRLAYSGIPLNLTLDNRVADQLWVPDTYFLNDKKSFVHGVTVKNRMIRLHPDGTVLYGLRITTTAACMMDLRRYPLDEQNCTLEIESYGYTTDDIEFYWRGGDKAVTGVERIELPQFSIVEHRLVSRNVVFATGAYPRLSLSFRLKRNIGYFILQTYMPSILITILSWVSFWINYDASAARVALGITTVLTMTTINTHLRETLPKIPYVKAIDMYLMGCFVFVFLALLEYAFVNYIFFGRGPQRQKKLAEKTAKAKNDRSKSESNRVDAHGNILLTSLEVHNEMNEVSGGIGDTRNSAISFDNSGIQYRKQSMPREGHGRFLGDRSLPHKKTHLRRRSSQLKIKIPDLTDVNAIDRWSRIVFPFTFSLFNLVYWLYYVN
T2 sequence (P18507 40-475): as the sequence (P18507 40-475) above
Summary of the method: as §1

[1] = target: T3, GABAA2 receptors (α2, β3, γ2 receptor subunits transfected into Sf9 cells) (Homo sapiens, UniProt P18507+P47869); assay: GABAA2 Binding Method ([3H]-Flunitrazepam displacement); conditions: [3H]-Flunitrazepam ~2 nM, α2β3γ2 Sf9 membranes, 1 hr at 4° C.
T3 construct: host or cells: Sf9 cells (membranes)
T3 sequence (P47869 29-451): as the sequence (P47869 29-451) above
T3 sequence (P28472 26-473 partner): as the sequence (P28472 26-473 partner) above
T3 sequence (P18507 40-475): as the sequence (P18507 40-475) above
Summary of the method: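 Membranes from Sf9 cells expressing α2β3γ2 GABAA receptors incubated with ~2 nM (final) [3H]-flunitrazepam and test compound 1 h at 4 °C, then filtered on GF/B plates with cold-buffer washes. Flumazenil-defined controls; percent of control, IC50 and Ki calculated.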

Row | Compound | Relative Potentiation for GABAA1 (GABAA receptor α1β2γ2) | Relative Potentiation for GABAA2 (GABAA receptor α2β3γ2) | Ki [1]
1 | Cc1cc(-c2cccc3c(N)c4c(nc23)CN(C2CCC2)C4=O)cnc1F [9-Amino-2-cyclobutyl-5-(6-fluoro-5-methylpyridin-3-yl)-2,3-dihydropyrrolo[3,4-b]quinolin-1-one] | 0.018 | 0.2 | 8.54 nM
2 | COc1ccc(-c2cccc3c(N)c4c(nc23)CN(C2CCC2)C4=O)c(C)n1 [9-Amino-2-cyclobutyl-5-(6-methoxy-2-methylpyridin-3-yl)-2,3-dihydropyrrolo[3,4-b]quinolin-1-one] | −0.0033 | 0.2 | 5.03 nM
3 | COc1ncc(-c2cccc3c(N)c4c(nc23)CN(C2CCC2)C4=O)cc1C [9-Amino-2-cyclobutyl-5-(6-methoxy-5-methylpyridin-3-yl)-2,3-dihydropyrrolo[3,4-b]quinolin-1-one] | 0.029 | 0.16 | 4.61 nM
4 | COc1ccc(-c2cccc3c(N)c4c(nc23)CN(C2CCC2)C4=O)cn1 [9-Amino-2-cyclobutyl-5-(6-methoxypyridin-3-yl)-2,3-dihydropyrrolo[3,4-b]quinolin-1-one] | −0.035 | 0.14 | 6.48 nM
5 | Cc1ccc(-c2cccc3c(N)c4c(nc23)CN(C2CCC2)C4=O)cn1 [9-Amino-2-cyclobutyl-5-(6-methylpyridin-3-yl)-2,3-dihydropyrrolo[3,4-b]quinolin-1-one] | −0.13 | 0.21 | 4.44 nM
6 | Nc1c2c(nc3c(-c4ccc(N5CCOCC5)nc4)cccc13)CN(C1CCC1)C2=O [9-Amino-2-cyclobutyl-5-(6-morpholin-4-yl-pyridin-3-yl)-2,3-dihydropyrrolo[3,4-b]quinolin-1-one] | −0.025 | 0.12 | 8.81 nM
7 | Nc1c2c(nc3c(-c4cnccn4)cccc13)CN(C1CCC1)C2=O [9-Amino-2-cyclobutyl-5-pyrazin-2-yl-2,3-dihydropyrrolo[3,4-b]quinolin-1-one] | −0.066 | 0.11 | 11.3 nM
8 | Nc1c2c(nc3c(-c4ccccn4)cccc13)CN(C1CCC1)C2=O [9-Amino-2-cyclobutyl-5-pyridin-2-yl-2,3-dihydropyrrolo[3,4-b]quinolin-1-one] | 0.061 | 0.12 | 4.66 nM
9 | Nc1c2c(nc3c(-c4ncccn4)cccc13)CN(C1CCC1)C2=O [9-Amino-2-cyclobutyl-5-pyrimidin-2-yl-2,3-dihydropyrrolo[3,4-b]quinolin-1-one] | 0.013 | 0.12 | 8.3 nM
10 | COc1cc(C)c(-c2c(F)ccc3c(N)c4c(nc23)CN(C2CCC2)C4=O)cn1 [9-Amino-2-cyclobutyl-6-fluoro-5-(6-methoxy-4-methylpyridin-3-yl)-2,3-dihydropyrrolo[3,4-b]quinolin-1-one] | 0.065 | 0.17 | 3.04 nM
11 | Cc1ccc(-c2c(F)ccc3c(N)c4c(nc23)CN(C2CCC2)C4=O)cn1 [9-Amino-2-cyclobutyl-6-fluoro-5-(6-methylpyridin-3-yl)-2,3-dihydropyrrolo[3,4-b]quinolin-1-one] | 0 | 0.15 | 0.305 nM
12 | COc1cccc(F)c1-c1cccc2c(N)c3c(nc12)CN(C1CCCC1)C3=O [9-Amino-2-cyclopentyl-5-(2-fluoro-6-methoxyphenyl)-2,3-dihydropyrrolo[3,4-b]quinolin-1-one] | −0.01 | 0.3 | 3.01 nM
13 | Nc1c2c(nc3c(-c4cccc(F)c4F)cccc13)CN(C1CC1)C2=O [9-Amino-2-cyclopropyl-5-(2,3-difluorophenyl)-2,3-dihydropyrrolo[3,4-b]quinolin-1-one] | 0.033 | 0.16 | 17 nM
14 | Nc1c2c(nc3c(-c4ccc(F)cc4F)cccc13)CN(C1CC1)C2=O [9-Amino-2-cyclopropyl-5-(2,4-difluorophenyl)-2,3-dihydropyrrolo[3,4-b]quinolin-1-one] | 0.018 | 0.14 | 20 nM

Next, values leading:

Row | Relative Potentiation for GABAA1 (GABAA receptor α1β2γ2) | Relative Potentiation for GABAA2 (GABAA receptor α2β3γ2) | Ki [1] | Compound
15 | 0.13 | 0.31 | 2.39 nM | Cc1nc(F)ccc1-c1cccc2c(N)c3c(nc12)CN(C1CCC1)C3=O [9-Amino-2-cyclobutyl-5-(6-fluoro-2-methylpyridin-3-yl)-2,3-dihydropyrrolo[3,4-b]quinolin-1-one]
16 | 0.085 | 0.16 | 1.48 nM | COc1cccc(-c2cccc3c(N)c4c(nc23)CN(C2CCC2)C4=O)n1 [9-Amino-2-cyclobutyl-5-(6-methoxypyridin-2-yl)-2,3-dihydropyrrolo[3,4-b]quinolin-1-one]
17 | 0.079 | 0.17 | 1.35 nM | Nc1c2c(nc3c(-c4ccncc4)cccc13)CN(C1CCC1)C2=O [9-Amino-2-cyclobutyl-5-pyridin-4-yl-2,3-dihydropyrrolo[3,4-b]quinolin-1-one]
18 | 0.028 | 0.18 | 0.122 nM | COc1cccc(-c2c(F)ccc3c(N)c4c(nc23)CN(C2CCC2)C4=O)c1F [9-Amino-2-cyclobutyl-6-fluoro-5-(2-fluoro-3-methoxyphenyl)-2,3-dihydropyrrolo[3,4-b]quinolin-1-one]
19 | 0.025 | 0.26 | 0.333 nM | COc1ccc(F)c(-c2c(F)ccc3c(N)c4c(nc23)CN(C2CCC2)C4=O)c1 [9-Amino-2-cyclobutyl-6-fluoro-5-(2-fluoro-5-methoxyphenyl)-2,3-dihydropyrrolo[3,4-b]quinolin-1-one]
20 | 0.018 | 0.19 | 0.246 nM | Nc1c2c(nc3c(-c4cccnc4F)c(F)ccc13)CN(C1CCC1)C2=O [9-Amino-2-cyclobutyl-6-fluoro-5-(2-fluoropyridin-3-yl)-2,3-dihydropyrrolo[3,4-b]quinolin-1-one]
21 | −0.047 | 0.2 | 1.56 nM | COc1ccccc1-c1c(F)ccc2c(N)c3c(nc12)CN(C1CCC1)C3=O [9-Amino-2-cyclobutyl-6-fluoro-5-(2-methoxyphenyl)-2,3-dihydropyrrolo[3,4-b]quinolin-1-one]
22 | −0.01 | 0.28 | 0.847 nM | COc1ncccc1-c1c(F)ccc2c(N)c3c(nc12)CN(C1CCC1)C3=O [9-Amino-2-cyclobutyl-6-fluoro-5-(2-methoxypyridin-3-yl)-2,3-dihydropyrrolo[3,4-b]quinolin-1-one]
23 | 0.11 | 0.11 | 1.68 nM | C=Cc1ccccc1-c1c(F)ccc2c(N)c3c(nc12)CN(C1CCC1)C3=O [9-Amino-2-cyclobutyl-6-fluoro-5-(2-vinylphenyl)-2,3-dihydropyrrolo[3,4-b]quinolin-1-one]
24 | 0.02 | 0.27 | 0.185 nM | COc1cnccc1-c1c(F)ccc2c(N)c3c(nc12)CN(C1CCC1)C3=O [9-Amino-2-cyclobutyl-6-fluoro-5-(3-methoxypyridin-4-yl)-2,3-dihydropyrrolo[3,4-b]quinolin-1-one]
25 | 0.0067 | 0.15 | 1.2 nM | COc1cc(F)ccc1-c1c(F)ccc2c(N)c3c(nc12)CN(C1CCC1)C3=O [9-Amino-2-cyclobutyl-6-fluoro-5-(4-fluoro-2-methoxyphenyl)-2,3-dihydropyrrolo[3,4-b]quinolin-1-one]
26 | 0.11 | 0.26 | 0.333 nM | COc1ccc(F)cc1-c1c(F)ccc2c(N)c3c(nc12)CN(C1CCC1)C3=O [9-Amino-2-cyclobutyl-6-fluoro-5-(5-fluoro-2-methoxyphenyl)-2,3-dihydropyrrolo[3,4-b]quinolin-1-one]
27 | 0.042 | 0.19 | 1.14 nM | COc1ccc(-c2c(F)ccc3c(N)c4c(nc23)CN(C2CCC2)C4=O)c(C)n1 [9-Amino-2-cyclobutyl-6-fluoro-5-(6-methoxy-2-methylpyridin-3-yl)-2,3-dihydropyrrolo[3,4-b]quinolin-1-one]
28 | −0.04 | 0.19 | 2.63 nM | COc1ccc(-c2c(F)ccc3c(N)c4c(nc23)CN(C2CCC2)C4=O)cn1 [9-Amino-2-cyclobutyl-6-fluoro-5-(6-methoxypyridin-3-yl)-2,3-dihydropyrrolo[3,4-b]quinolin-1-one]
29 | −0.053 | 0.09 | 1.46 nM | Nc1c2c(nc3c(-c4cncnc4)c(F)ccc13)CN(C1CCC1)C2=O [9-Amino-2-cyclobutyl-6-fluoro-5-pyrimidin-5-yl-2,3-dihydropyrrolo[3,4-b]quinolin-1-one]
